Laboratory results published in US9113629B2, “4-amino-6-(4-substituted-phenyl)-picolinates and 6-amino-2-(4-substituted-phenyl)-pyrimidine-4-carboxylates and their use as herbicides” (DOW AGROSCIENCES LLC, priority 2013, dated 2015).

tested on: Key Broadleaf Weed and Crop Species; experiment: Post-emergent Test II herbicidal activity (Table 5); type: in vivo; settings: post-emergence, 336 h; ABUTH: velvetleaf (Abutilon theophrasti); 70 g ai/ha; post-emergent; 14 days after application; read-out: Visual Growth Reduction (%) 14 Days After Application ABUTH
Method in brief: (§1)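 Compounds, dissolved in 97:3 acetone/DMSO and diluted into an aqueous carrier containing crop oil concentrate and Triton X-155, are applied over the top of young plants at 187 L/ha. Injury is scored visually at 14 d, 0% meaning no effect and 100% complete kill.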

SMILES | pest or weed control at 70 g/ha [%]
COc1c(N)nc(-c2ccc(Br)c(F)c2)nc1C(=O)O [Compound 113, 6-Amino-2-(4-bromo-3-fluorophenyl)-5-methoxypyrimidine-4-carboxylic acid] | 85 to 94

same assay, conditions: post-emergence, 336 h; ABUTH: velvetleaf (Abutilon theophrasti); 140 g ai/ha; post-emergent; 14 days after application; read-out: Visual Growth Reduction (%) 14 Days After Application ABUTH

SMILES | pest or weed control at 140 g/ha [%]
COc1c(N)nc(-c2ccc(Br)c(F)c2)nc1C(=O)O [Compound 113, 6-Amino-2-(4-bromo-3-fluorophenyl)-5-methoxypyrimidine-4-carboxylic acid] | 85 to 94

same assay, conditions: post-emergence, 336 h; AMARE: redroot pigweed (Amaranthus retroflexus); 70 g ai/ha; post-emergent; 14 days after application; read-out: Visual Growth Reduction (%) 14 Days After Application AMARE

SMILES | pest or weed control at 70 g/ha [%]
COc1c(N)nc(-c2ccc(Br)c(F)c2)nc1C(=O)O [Compound 113, 6-Amino-2-(4-bromo-3-fluorophenyl)-5-methoxypyrimidine-4-carboxylic acid] | 95 to 100

same assay, conditions: post-emergence, 336 h; AMARE: redroot pigweed (Amaranthus retroflexus); 140 g ai/ha; post-emergent; 14 days after application; read-out: Visual Growth Reduction (%) 14 Days After Application AMARE

SMILES | pest or weed control at 140 g/ha [%]
COc1c(N)nc(-c2ccc(Br)c(F)c2)nc1C(=O)O [Compound 113, 6-Amino-2-(4-bromo-3-fluorophenyl)-5-methoxypyrimidine-4-carboxylic acid] | 95 to 100

same assay, conditions: post-emergence, 336 h; BRSNN: oilseed-rape, canola (Brassica napus); 70 g ai/ha; post-emergent; 14 days after application; read-out: Visual Growth Reduction (%) 14 Days After Application BRSNN

SMILES | pest or weed control at 70 g/ha [%]
COc1c(N)nc(-c2ccc(Br)c(F)c2)nc1C(=O)O [Compound 113, 6-Amino-2-(4-bromo-3-fluorophenyl)-5-methoxypyrimidine-4-carboxylic acid] | 95 to 100

same assay, conditions: post-emergence, 336 h; BRSNN: oilseed-rape, canola (Brassica napus); 140 g ai/ha; post-emergent; 14 days after application; read-out: Visual Growth Reduction (%) 14 Days After Application BRSNN

SMILES | pest or weed control at 140 g/ha [%]
COc1c(N)nc(-c2ccc(Br)c(F)c2)nc1C(=O)O [Compound 113, 6-Amino-2-(4-bromo-3-fluorophenyl)-5-methoxypyrimidine-4-carboxylic acid] | 95 to 100

same assay, conditions: post-emergence, 336 h; CHEAL: lambsquarters (Chenopodium album); 70 g ai/ha; post-emergent; 14 days after application; read-out: Visual Growth Reduction (%) 14 Days After Application CHEAL

SMILES | pest or weed control at 70 g/ha [%]
COc1c(N)nc(-c2ccc(Br)c(F)c2)nc1C(=O)O [Compound 113, 6-Amino-2-(4-bromo-3-fluorophenyl)-5-methoxypyrimidine-4-carboxylic acid] | 95 to 100

same assay, conditions: post-emergence, 336 h; CHEAL: lambsquarters (Chenopodium album); 140 g ai/ha; post-emergent; 14 days after application; read-out: Visual Growth Reduction (%) 14 Days After Application CHEAL

SMILES | pest or weed control at 140 g/ha [%]
COc1c(N)nc(-c2ccc(Br)c(F)c2)nc1C(=O)O [Compound 113, 6-Amino-2-(4-bromo-3-fluorophenyl)-5-methoxypyrimidine-4-carboxylic acid] | 95 to 100

same assay, conditions: post-emergence, 336 h; EPHHL: wild poinsettia (Euphorbia heterophylla); 70 g ai/ha; post-emergent; 14 days after application; read-out: Visual Growth Reduction (%) 14 Days After Application EPHHL

SMILES | pest or weed control at 70 g/ha [%]
COc1c(N)nc(-c2ccc(Br)c(F)c2)nc1C(=O)O [Compound 113, 6-Amino-2-(4-bromo-3-fluorophenyl)-5-methoxypyrimidine-4-carboxylic acid] | 95 to 100

same assay, conditions: post-emergence, 336 h; EPHHL: wild poinsettia (Euphorbia heterophylla); 140 g ai/ha; post-emergent; 14 days after application; read-out: Visual Growth Reduction (%) 14 Days After Application EPHHL

SMILES | pest or weed control at 140 g/ha [%]
COc1c(N)nc(-c2ccc(Br)c(F)c2)nc1C(=O)O [Compound 113, 6-Amino-2-(4-bromo-3-fluorophenyl)-5-methoxypyrimidine-4-carboxylic acid] | 95 to 100

same assay, conditions: post-emergence, 336 h; HELAN: sunflower (Helianthus annuus); 70 g ai/ha; post-emergent; 14 days after application; read-out: Visual Growth Reduction (%) 14 Days After Application HELAN

SMILES | pest or weed control at 70 g/ha [%]
COc1c(N)nc(-c2ccc(Br)c(F)c2)nc1C(=O)O [Compound 113, 6-Amino-2-(4-bromo-3-fluorophenyl)-5-methoxypyrimidine-4-carboxylic acid] | 95 to 100

same assay, conditions: post-emergence, 336 h; HELAN: sunflower (Helianthus annuus); 140 g ai/ha; post-emergent; 14 days after application; read-out: Visual Growth Reduction (%) 14 Days After Application HELAN

SMILES | pest or weed control at 140 g/ha [%]
COc1c(N)nc(-c2ccc(Br)c(F)c2)nc1C(=O)O [Compound 113, 6-Amino-2-(4-bromo-3-fluorophenyl)-5-methoxypyrimidine-4-carboxylic acid] | 95 to 100

same assay, conditions: post-emergence, 336 h; VIOTR: wild pansy (Viola tricolor); 70 g ai/ha; post-emergent; 14 days after application; read-out: Visual Growth Reduction (%) 14 Days After Application VIOTR

SMILES | pest or weed control at 70 g/ha [%]
COc1c(N)nc(-c2ccc(Br)c(F)c2)nc1C(=O)O [Compound 113, 6-Amino-2-(4-bromo-3-fluorophenyl)-5-methoxypyrimidine-4-carboxylic acid] | 95 to 100

same assay, conditions: post-emergence, 336 h; VIOTR: wild pansy (Viola tricolor); 140 g ai/ha; post-emergent; 14 days after application; read-out: Visual Growth Reduction (%) 14 Days After Application VIOTR

SMILES | pest or weed control at 140 g/ha [%]
COc1c(N)nc(-c2ccc(Br)c(F)c2)nc1C(=O)O [Compound 113, 6-Amino-2-(4-bromo-3-fluorophenyl)-5-methoxypyrimidine-4-carboxylic acid] | 95 to 100

tested on: Key Grass and Sedge Weeds as well as Grass Crops; experiment: Post-emergent Test II herbicidal activity (Table 6); type: in vivo; settings: Triticum aestivum, post-emergence, 336 h, TRZSS (wheat), application rate 70 g ai/ha, read-out: Visual Growth Reduction (%) 14 Days After Application, TRZSS
Method in brief: as §1

SMILES | pest or weed control at 70 g/ha [%]
COc1c(N)nc(-c2ccc(Br)c(F)c2)nc1C(=O)O [Compound 113, 6-Amino-2-(4-bromo-3-fluorophenyl)-5-methoxypyrimidine-4-carboxylic acid] | 60 to 74

same assay, conditions: Triticum aestivum, post-emergence, 336 h, TRZSS (wheat), application rate 140 g ai/ha, read-out: Visual Growth Reduction (%) 14 Days After Application, TRZSS

SMILES | pest or weed control at 140 g/ha [%]
COc1c(N)nc(-c2ccc(Br)c(F)c2)nc1C(=O)O [Compound 113, 6-Amino-2-(4-bromo-3-fluorophenyl)-5-methoxypyrimidine-4-carboxylic acid] | 75 to 84

same assay, conditions: post-emergence, 336 h, CYPES: yellow nutsedge (Cyperus esculentus), application rate 70 g ai/ha, read-out: Visual Growth Reduction (%) 14 Days After Application, CYPES

SMILES | pest or weed control at 70 g/ha [%]
COc1c(N)nc(-c2ccc(Br)c(F)c2)nc1C(=O)O [Compound 113, 6-Amino-2-(4-bromo-3-fluorophenyl)-5-methoxypyrimidine-4-carboxylic acid] | 95 to 100

same assay, conditions: post-emergence, 336 h, CYPES: yellow nutsedge (Cyperus esculentus), application rate 140 g ai/ha, read-out: Visual Growth Reduction (%) 14 Days After Application, CYPES

SMILES | pest or weed control at 140 g/ha [%]
COc1c(N)nc(-c2ccc(Br)c(F)c2)nc1C(=O)O [Compound 113, 6-Amino-2-(4-bromo-3-fluorophenyl)-5-methoxypyrimidine-4-carboxylic acid] | 95 to 100

same assay, conditions: post-emergence, 336 h, DIGSA: crabgrass (Digitaria sanguinalis), application rate 70 g ai/ha, read-out: Visual Growth Reduction (%) 14 Days After Application, DIGSA

SMILES | pest or weed control at 70 g/ha [%]
COc1c(N)nc(-c2ccc(Br)c(F)c2)nc1C(=O)O [Compound 113, 6-Amino-2-(4-bromo-3-fluorophenyl)-5-methoxypyrimidine-4-carboxylic acid] | 75 to 84

same assay, conditions: post-emergence, 336 h, DIGSA: crabgrass (Digitaria sanguinalis), application rate 140 g ai/ha, read-out: Visual Growth Reduction (%) 14 Days After Application, DIGSA

SMILES | pest or weed control at 140 g/ha [%]
COc1c(N)nc(-c2ccc(Br)c(F)c2)nc1C(=O)O [Compound 113, 6-Amino-2-(4-bromo-3-fluorophenyl)-5-methoxypyrimidine-4-carboxylic acid] | 75 to 84

same assay, conditions: post-emergence, 336 h, ECHCG: barnyardgrass (Echinochloa crus-galli), application rate 70 g ai/ha, read-out: Visual Growth Reduction (%) 14 Days After Application, ECHCG

SMILES | pest or weed control at 70 g/ha [%]
COc1c(N)nc(-c2ccc(Br)c(F)c2)nc1C(=O)O [Compound 113, 6-Amino-2-(4-bromo-3-fluorophenyl)-5-methoxypyrimidine-4-carboxylic acid] | 85 to 94

same assay, conditions: post-emergence, 336 h, ECHCG: barnyardgrass (Echinochloa crus-galli), application rate 140 g ai/ha, read-out: Visual Growth Reduction (%) 14 Days After Application, ECHCG

SMILES | pest or weed control at 140 g/ha [%]
COc1c(N)nc(-c2ccc(Br)c(F)c2)nc1C(=O)O [Compound 113, 6-Amino-2-(4-bromo-3-fluorophenyl)-5-methoxypyrimidine-4-carboxylic acid] | 85 to 94

same assay, conditions: post-emergence, 336 h, ORYSA: rice (Oryza sativa), application rate 70 g ai/ha, read-out: Visual Growth Reduction (%) 14 Days After Application, ORYSA

SMILES | pest or weed control at 70 g/ha [%]
COc1c(N)nc(-c2ccc(Br)c(F)c2)nc1C(=O)O [Compound 113, 6-Amino-2-(4-bromo-3-fluorophenyl)-5-methoxypyrimidine-4-carboxylic acid] | 30 to 44

same assay, conditions: post-emergence, 336 h, ORYSA: rice (Oryza sativa), application rate 140 g ai/ha, read-out: Visual Growth Reduction (%) 14 Days After Application, ORYSA

SMILES | pest or weed control at 140 g/ha [%]
COc1c(N)nc(-c2ccc(Br)c(F)c2)nc1C(=O)O [Compound 113, 6-Amino-2-(4-bromo-3-fluorophenyl)-5-methoxypyrimidine-4-carboxylic acid] | 60 to 74

same assay, conditions: post-emergence, 336 h, SETFA: giant foxtail (Setaria faberi), application rate 70 g ai/ha, read-out: Visual Growth Reduction (%) 14 Days After Application, SETFA

SMILES | pest or weed control at 70 g/ha [%]
COc1c(N)nc(-c2ccc(Br)c(F)c2)nc1C(=O)O [Compound 113, 6-Amino-2-(4-bromo-3-fluorophenyl)-5-methoxypyrimidine-4-carboxylic acid] | 75 to 84

same assay, conditions: post-emergence, 336 h, SETFA: giant foxtail (Setaria faberi), application rate 140 g ai/ha, read-out: Visual Growth Reduction (%) 14 Days After Application, SETFA

SMILES | pest or weed control at 140 g/ha [%]
COc1c(N)nc(-c2ccc(Br)c(F)c2)nc1C(=O)O [Compound 113, 6-Amino-2-(4-bromo-3-fluorophenyl)-5-methoxypyrimidine-4-carboxylic acid] | 75 to 84

same assay, conditions: post-emergence, 336 h, SORVU: grain sorghum (Sorghum vulgare), application rate 70 g ai/ha, read-out: Visual Growth Reduction (%) 14 Days After Application, SORVU

SMILES | pest or weed control at 70 g/ha [%]
COc1c(N)nc(-c2ccc(Br)c(F)c2)nc1C(=O)O [Compound 113, 6-Amino-2-(4-bromo-3-fluorophenyl)-5-methoxypyrimidine-4-carboxylic acid] | 85 to 94

same assay, conditions: post-emergence, 336 h, SORVU: grain sorghum (Sorghum vulgare), application rate 140 g ai/ha, read-out: Visual Growth Reduction (%) 14 Days After Application, SORVU

SMILES | pest or weed control at 140 g/ha [%]
COc1c(N)nc(-c2ccc(Br)c(F)c2)nc1C(=O)O [Compound 113, 6-Amino-2-(4-bromo-3-fluorophenyl)-5-methoxypyrimidine-4-carboxylic acid] | 85 to 94

same assay, conditions: post-emergence, 336 h, ZEAMX: maize, corn (Zea mays), application rate 70 g ai/ha, read-out: Visual Growth Reduction (%) 14 Days After Application, ZEAMX

SMILES | pest or weed control at 70 g/ha [%]
COc1c(N)nc(-c2ccc(Br)c(F)c2)nc1C(=O)O [Compound 113, 6-Amino-2-(4-bromo-3-fluorophenyl)-5-methoxypyrimidine-4-carboxylic acid] | 85 to 94

same assay, conditions: post-emergence, 336 h, ZEAMX: maize, corn (Zea mays), application rate 140 g ai/ha, read-out: Visual Growth Reduction (%) 14 Days After Application, ZEAMX

SMILES | pest or weed control at 140 g/ha [%]
COc1c(N)nc(-c2ccc(Br)c(F)c2)nc1C(=O)O [Compound 113, 6-Amino-2-(4-bromo-3-fluorophenyl)-5-methoxypyrimidine-4-carboxylic acid] | 85 to 94
